# Source: patent US8119696B2, “Treatment of superficial and cutaneous mycoses with a pure form of 1,7-bis(4-hydroxy-3-methoxyphenyl)-3,5-heptanedione” (priority 2007, dated 2012)
# “Also recorded” adds a separate entry of the source.
# How the values were obtained:
# Type in all cases: cell-based
# [1] = test system: Candida albicans NCIM 3471 (yeast); test: Activity against Candida species: colony counts over 28 days
# [2] = test system: Trichophyton rubrum; test: Anti-dermatophytic activity, agar dilution method (Sabouraud's dextrose agar); conditions: for Growth of test organism (Negative/Growth): DMSO solvent, SDA, trials TR1-TR3; for Inhibition of growth at all tested concentrations: concentrations 0.15%, 0.31%, 0.625%, 1.25%, 2.50% and 5.0%
# Method: (§1) The anti-dermatophyte efficacy testing for greater than 99% pure form of 1,7-Bis(4-hydroxy-3-methoxyphenyl)-3,5-heptanedione (coded TP) in comparison to the corresponding 95% pure form (coded SW) was done by the agar dilution method. The medium used was Sabouraud's dextrose agar (SDA). Doubling concentration ranges from about 0.15% to about 5% of TP and […] was prepared in 5 ml Dimethylsulfoxide and added to 95 ml of SDA to form a total volume of 100 ml of the medium. The test organisms Trichophyton rubrum, Microsporum gypseum and Epidermophyton floccosum encoded as TR, MG and EF were inoculated in biosafety level 2 standards into the media comprising test compounds in the specified concentration ranges. Triplicate experiments were set up for each of the three fungi for each concentration of the test compounds to ensure reproducibility of results. DMSO and SDA controls were also included in triplicates for the test.
# (§2) The test results are represented as Table I (FIG. 1, FIG. 2 and FIG. 3). The table may be read as follows. For example, TPTR1 represents growth of Trichophyton rubrum in greater than 99% pure form of 1,7-Bis (4-hydroxy-3-methoxyphenyl)-3,5-heptanedione in the first test. Similarly duplicate and triplicate testing are represented as TPTR2 and TPTR3.
# [3] = test system: Microsporum gypseum; test: as above; conditions: for Growth of test organism (Negative/Growth): DMSO solvent, SDA, trials MG1-MG3; for Inhibition of growth at all tested concentrations: concentrations 0.15%, 0.31%, 0.625%, 1.25%, 2.50% and 5.0%
# Method: as §1, §2
# [4] = test system: Epidermophyton floccosum; test: as above; conditions: for Growth of test organism (Negative/Growth): DMSO solvent, SDA, trials EF1-EF3; for Inhibition of growth at all tested concentrations: concentrations 0.15%, 0.31%, 0.625%, 1.25%, 2.50% and 5.0%
# Method: as §1, §2
# [5] = test system: Malassezia furfur; test: Antifungal efficacy, agar dilution method (Sabourauds Dextrose Agar with an overlay of coconut oil); conditions: for Growth of test organism (Negative/Growth): DMSO solvent, trials MF1-MF3
# [6] = test system: Fusarium oxysporum (mycotoxin producing fungus); test: Activity against Fusarium oxysporum: counts over 28 days; conditions: inoculation level 1 × 10^7 CFU/g
# [7] = test interval 7 days, listed as 1,7-bis(4-hydroxy-3-methoxyphenyl)-3,5-heptanedione (about 95% purity)
# [8] = test interval 14 days, listed as 1,7-bis(4-hydroxy-3-methoxyphenyl)-3,5-heptanedione (about 95% purity)
# [9] = test interval 21 days, listed as 1,7-bis(4-hydroxy-3-methoxyphenyl)-3,5-heptanedione (about 95% purity)
# [10] = test interval 28 days, listed as 1,7-bis(4-hydroxy-3-methoxyphenyl)-3,5-heptanedione (about 95% purity)
# [11] = final concentration 0.15%, listed as 95% pure form of 1,7-Bis(4-hydroxy-3-methoxyphenyl)-3,5-heptanedione
# [12] = test interval 7 days, listed as 1,7-bis(4-hydroxy-3-methoxyphenyl)-3,5-heptanedione (>99% purity)
# [13] = test interval 14 days, listed as 1,7-bis(4-hydroxy-3-methoxyphenyl)-3,5-heptanedione (>99% purity)
# [14] = test interval 21 days, listed as 1,7-bis(4-hydroxy-3-methoxyphenyl)-3,5-heptanedione (>99% purity)
# [15] = test interval 28 days, listed as 1,7-bis(4-hydroxy-3-methoxyphenyl)-3,5-heptanedione (>99% purity)
# [16] = test interval 28 days, listed as greater than 99% pure form of 1,7-bis(4-hydroxy-3-methoxyphenyl)-3,5-heptanedion
# [17] = listed as greater than 99% pure form of 1,7-Bis(4-hydroxy-3-methoxyphenyl)-3,5-heptanedion
smiles,measurement,setting,value
"COc1cc(CCC(=O)CC(=O)CCc2ccc(O)c(OC)c2)ccc1O [SW, 1,7-Bis(4-hydroxy-3-methoxyphenyl)-3,5-heptanedione]",Concentration of organism,"[1]; test interval 0 days, listed as 1,7-bis(4-hydroxy-3-methoxyphenyl)-3,5-heptanedione (about 95% purity)",25 × 10^5 cfu/ml
same,Concentration of organism,[1]; [7],19.7 × 10^5 cfu/ml
same,Log Reduction,[1]; [7],0.2
same,Percent Reduction,[1]; [7],21.2%
same,Concentration of organism,[1]; [8],16 × 10^4 cfu/ml
same,Log Reduction,[1]; [8],2.3
same,Percent Reduction,[1]; [8],99.3%
same,Concentration of organism,[1]; [9],53 × 10^5 cfu/ml
same,Log Reduction,[1]; [9],0.7
same,Percent Reduction,[1]; [9],78.6%
same,Concentration of organism,[1]; [10],31.5 × 10^5 cfu/ml
same,Log Reduction,[1]; [10],0.8
same,Percent Reduction,[1]; [10],87.4%
same,Growth of test organism (Negative/Growth),[2]; final concentration 0.15%,tolerated by the fungi; also recorded: Growth
same,Growth of test organism (Negative/Growth),[2]; [11],grow
same,Growth of test organism (Negative/Growth),[2]; final concentration 0.31%,Negative
same,Growth of test organism (Negative/Growth),[2]; final concentration 0.625%,Negative
same,Growth of test organism (Negative/Growth),[2]; final concentration 1.25%,Negative
same,Growth of test organism (Negative/Growth),[2]; final concentration 2.5%,Negative
same,Growth of test organism (Negative/Growth),[2]; final concentration 5%,Negative
same,Growth of test organism (Negative/Growth),[3]; final concentration 0.15%,tolerated by the fungi; also recorded: Growth
same,Growth of test organism (Negative/Growth),[3]; [11],grow
same,Growth of test organism (Negative/Growth),[3]; final concentration 0.31%,Negative
same,Growth of test organism (Negative/Growth),[3]; final concentration 0.625%,Negative
same,Growth of test organism (Negative/Growth),[3]; final concentration 1.25%,Negative
same,Growth of test organism (Negative/Growth),[3]; final concentration 2.5%,Negative
same,Growth of test organism (Negative/Growth),[3]; final concentration 5%,Negative
same,Growth of test organism (Negative/Growth),[4]; final concentration 0.15%,able to grow; also recorded: Growth
same,Growth of test organism (Negative/Growth),[4]; [11],grow
same,Growth of test organism (Negative/Growth),[4]; final concentration 0.31%,able to grow; also recorded: Growth
same,Growth of test organism (Negative/Growth),"[4]; final concentration 0.31%, listed as 95% pure form of 1,7-Bis(4-hydroxy-3-methoxyphenyl)-3,5-heptanedione",tolerant
same,Growth of test organism (Negative/Growth),[4]; final concentration 0.625%,Negative
same,Growth of test organism (Negative/Growth),[4]; final concentration 1.25%,Negative
same,Growth of test organism (Negative/Growth),[4]; final concentration 2.5%,Negative
same,Growth of test organism (Negative/Growth),[4]; final concentration 5%,Negative
same,Concentration that inhibits the growth of the fungus,[5]; agar dilution,≥ 1.25%
same,Growth of test organism (Negative/Growth),[5]; final concentration 0.15%,Growth
same,Growth of test organism (Negative/Growth),[5]; final concentration 0.31%,Growth
same,Growth of test organism (Negative/Growth),[5]; final concentration 0.625%,Growth
same,Growth of test organism (Negative/Growth),[5]; final concentration 1.25%,Negative; also recorded: Growth
same,Growth of test organism (Negative/Growth),[5]; final concentration 2.5%,Negative
same,Growth of test organism (Negative/Growth),[5]; final concentration 5%,Negative
"COc1cc(CCC(=O)CC(=O)CCc2ccc(O)c(OC)c2)ccc1O [TP, 1,7-Bis(4-hydroxy-3-methoxyphenyl)-3,5-heptanedione]",Concentration of organism,"[1]; test interval 0 days, listed as 1,7-bis(4-hydroxy-3-methoxyphenyl)-3,5-heptanedione (>99% purity)",14.6 × 10^5 cfu/ml
same,Concentration of organism,[1]; [12],72 × 10^5 cfu/ml
same,Log Reduction,[1]; [12],0.5
same,Percent Reduction,[1]; [12],50.6%
same,Concentration of organism,[1]; [13],20 × 10^8 cfu/ml
same,Log Reduction,[1]; [13],2.8
same,Percent Reduction,[1]; [13],99.8%
same,Concentration of organism,[1]; [14],75 × 10^2 cfu/ml
same,Log Reduction,[1]; [14],3.4
same,Percent Reduction,[1]; [14],99.94%
same,Concentration of organism,[1]; [15],<130 cfu/ml
same,Log Reduction,[1]; [15],5.3
same,Percent Reduction,[1]; [15],99.99%
same,Concentration of organism,[1]; [16],less than 100 cfu/ml
same,Percent Reduction,[1]; [16],99.99%
same,Inhibition of growth at all tested concentrations,[2],inhibits the growth
same,Inhibition of growth at all tested concentrations,[2]; [17],completely inhibiting the growth
same,Growth of test organism (Negative/Growth),[2]; final concentration 0.15%,Negative
same,Growth of test organism (Negative/Growth),[2]; final concentration 0.31%,Negative
same,Growth of test organism (Negative/Growth),[2]; final concentration 0.625%,Negative
same,Growth of test organism (Negative/Growth),[2]; final concentration 1.25%,Negative
same,Growth of test organism (Negative/Growth),[2]; final concentration 2.5%,Negative
same,Growth of test organism (Negative/Growth),[2]; final concentration 5%,Negative
same,Inhibition of growth at all tested concentrations,[3],inhibits the growth
same,Inhibition of growth at all tested concentrations,[3]; [17],completely inhibiting the growth
same,Growth of test organism (Negative/Growth),[3]; final concentration 0.15%,Negative
same,Growth of test organism (Negative/Growth),[3]; final concentration 0.31%,Negative
same,Growth of test organism (Negative/Growth),[3]; final concentration 0.625%,Negative
same,Growth of test organism (Negative/Growth),[3]; final concentration 1.25%,Negative
same,Growth of test organism (Negative/Growth),[3]; final concentration 2.5%,Negative
same,Growth of test organism (Negative/Growth),[3]; final concentration 5%,Negative
same,Inhibition of growth at all tested concentrations,[4],inhibits the growth
same,Inhibition of growth at all tested concentrations,[4]; [17],completely inhibiting the growth
same,Growth of test organism (Negative/Growth),[4]; final concentration 0.15%,Negative
same,Growth of test organism (Negative/Growth),[4]; final concentration 0.31%,Negative
same,Growth of test organism (Negative/Growth),[4]; final concentration 0.625%,Negative
same,Growth of test organism (Negative/Growth),[4]; final concentration 1.25%,Negative
same,Growth of test organism (Negative/Growth),[4]; final concentration 2.5%,Negative
same,Growth of test organism (Negative/Growth),[4]; final concentration 5%,Negative
same,Day 0 count,[6],1 × 10^7 CFU/g
same,Day 7 count,[6],<10 CFU/g
same,Day 14 count,[6],<10 CFU/g
same,Day 28 Count,[6],<10 CFU/g
same,"Activity against Malassezia furfur at all tested concentration, in contrast to the 95% pure form",[5]; 0.15% to 5%,enhanced activity
same,Growth of test organism (Negative/Growth),[5]; final concentration 0.15%,Negative
same,Growth of test organism (Negative/Growth),[5]; final concentration 0.31%,Negative
same,Growth of test organism (Negative/Growth),[5]; final concentration 0.625%,Negative
same,Growth of test organism (Negative/Growth),[5]; final concentration 1.25%,Negative
same,Growth of test organism (Negative/Growth),[5]; final concentration 2.5%,Negative
same,Growth of test organism (Negative/Growth),[5]; final concentration 5%,Negative
